Series [1] concerns GBM6 CSCs. The series is described as follows: Clonogenic survival assay. The series is classed as cell-based, human. The settings on record: 6 and 10 nM, 72 hours. The procedure:
Cells were grown in previously poly-DL-ornithine (Sigma-Aldrich) coated 6-well plates (1000 cells/well) and after treatment for 72 hours with BAL27862, incubated for up to 5 days. Colonies were stained with 1% Crystal-violet solution in 20% methanol (Sigma-Aldrich). The colonies with more than 50 cells were counted. At least three independent experiments were performed.

Series [2] has as its system GBM6 CSCs. The series is described as follows: FACS analysis of A2B5 positive GBM6 brain tumor CSCs in vitro. The settings on record: 6 nM, 72 hours. The series is classed as cell-based, human. On the procedure: GBM6 cells were seeded at 300′000 cells/well into poly-DL-ornithine-coated 6-well plates (10 μg/mL)(Sigma-Aldrich), in stem cell-permissive medium (5 mg/mL Insulin, 0.1 mM Putrescine, […] Transferrin, 2.10^−8M Progesterone, 50 mg/mL Penicillin-Streptomycin and growth factors including 10 ng/mL basic fibroblast growth factor (bFGF), 20 ng/mL epidermal growth factor (EGF) and B27). One day later, cells were treated with BAL27862 for 72 hours. Then, cells were trypsinized, suspended in Hanks' Balanced Salt Solution (HBSS) buffer (Life technologies) containing blocking solution (Miltenyi Biotec) and incubated with A2B5-APC (clone 105HB29, reference 130-093-582) and CD133-PE (clone 293C3, reference 130-090-853) antibodies (Miltenyi Biotec) for 10 minutes. Cells were then fixed with 10% paraformaldehyde (Sigma-Aldrich) for 20 minutes and analyzed using flow cytometry (FACS Calibur™ BD Biosciences). A total of 100′000 events were counted for each sample and data were recorded with the CellQuest Pro Software (BD Biosciences) and analyzed using FlowJo software (Tree Star Inc., San Carlos, Calif.) and the Dean-Jet-Fox model analysis.

The test system of series [3] is GBM6 CSCs. The series is described as follows: Cytotoxic assay (sulforhodamine B growth inhibition, 72 hours). The series is classed as cell-based, human. The settings on record: at least three independent experiments, read-out: EC50 +/− SEM, cytotoxic activity. On the procedure: (§1) Cells (5000 cells/well) were seeded in previously poly-DL-ornithine (Sigma-Aldrich) coated 96-well plates (10 μg/mL) and allowed to grow for 24 hours before treatment with BAL27862. Growth inhibition of cells was measured after 72 hours by using a sulforhodamine B assay kit (Sigma-Aldrich). Cell density was analyzed using a microplate reader (Labsystems Multiscan, Thermo, Villebon sur Yvette, France) and analysis of EC50 were performed with GraphPad 5.0 statistical software (GraphPad Software, La Jolla, USA). At least three independent experiments were performed.

For series [4], the system named is GBM9 CSCs. Described as above. Particulars: at least three independent experiments, read-out: EC50 +/− SEM, cytotoxic activity. The series is classed as cell-based, human. The procedure:
as §1

The subject of series [5] is GBM6 CSCs. The series can be described thus: Transwell cell migration assay. The series is classed as cell-based, human. On the procedure: (§2) Stem cells (50′000) were poured on the upper side of a transwell migration chamber ([…] filter, BD) in DMEM. The lower side of the chamber was filled with DMEM, supplemented with 10% FCS. Cells were allowed to transmigrate for 5 hours and then chambers were removed. […] After washing and drying, pictures of six fields per condition were imaged at a magnification of 10× and transmigrated cells were counted.

Series [6] concerns GBM9 CSCs. The series can be described thus: Transwell cell migration assay. Particulars: 5 hours transmigration. The class given is cell-based, human. The procedure: as §2
The subject of series [7] is GBM6 CSCs. The series is described as follows: Self-renewal capacity determination (sphere formation). The class given is cell-based, human. Particulars: 6 nM, 72 hours. The procedure:
GBM6 cells were seeded in previously poly-DL-ornithine (Sigma-Aldrich) coated 6-well plates (150′000 cells/well). After 24 hours, cells were treated or not with BAL27862 for 72 hours. At the end of treatment, the supernatant was removed and cells were harvested, dissociated into single cells and plated in 96-well plates (1-5 cells/well). Eight days later, the spheres were counted under an inverted light microscope (Leica DMI 4000B) (Leica, Saint Jorioz, France). Three independent experiments were performed.

The subject of series [8] is orthotopic GBM6 tumors. The series is described as follows: Orthotopic GBM6 xenografts, tumor volume by three-dimensional brain reconstruction. The series is classed as in vivo, mouse. The settings on record: 25 mg/kg i.v. days 30/33/36, day 45. The procedure:
(§3) Approximately 100′000 cells of GBM6 GFP sh0 or shEB1 cells were stereotactically injected into the subventricular zone (0.5 mm anterior to bregma, −1 mm lateral, and −2.1 mm deep to the cortex surface) of 6-week-old athymic Nude mice. Grafted mice were intravenously treated with 25 mg/kg BAL101553 (three times at 30, 33 and 36 days after glioma implantation) or with vehicle (control). Forty five days after implantation, three animals of each group were sacrificed for analysis of tumor volumes (by three-dimensional brain reconstructions) or for FACS analysis.
For analysis of tumor volumes, mice were anesthetized and perfused with 4% paraformaldehyde. Brains were removed and fixed in 4% paraformaldehyde for 2 days at 4° C., then rinsed and conserved in PBS until dissection. Brains were entirely cut into 50-100-μm-thick sections using Vibratome (Leica) following the sagittal axis. A total of 60 sections per brain were obtained. Mapping and analysis of GFP-injected cells and tumors were performed by using a Leica DMLB fluorescence microscope, a Leica DC300F digital camera, and the Leica FW4000 imaging software (Leica). Three-dimensional brain reconstructions were obtained using FreeD software (Andrey P., Free-D: an integrated environment for three-dimensional reconstruction from serial sections. Journal of Neuroscience Methods. 2005; 145(1-2):233-244). […]

Series [9] relates to orthotopic GBM6 tumors. The series can be described thus: FACS analysis of A2B5 brain tumor cancer stem cells from orthotopic GBM6 tumors. The series is classed as in vivo, mouse. Particulars: 25 mg/kg i.v. days 30/33/36, day 45. The procedure: as §3
After anesthesia, animals were perfused with PBS, and brains were removed and stored in HBSS buffer containing 2% FBS. Cells were dissociated in a cocktail of enzymes (DNase I (Roche, Rotkreuz, Switzerland), Collagenase D (Roche) and V (Sigma-Aldrich) with GentleMACS dissociator (Miltenyi Biotech)). The reaction was stopped by adding DMEM containing 10% FCS. The suspension was filtered and cells were resuspended in 40% Percoll (Sigma-Aldrich). After centrifugation, myelin was removed and cells were resuspended in HBSS buffer containing 2% FCS. Cells were incubated in HBSS containing 2% FCS with A2B5-APC and CD133-PE antibodies for 10 minutes. Cells were then fixed with 10% paraformaldehyde for 20 minutes and analyzed using flow cytometry. A total of 100′000 events were counted for each sample and data were recorded with the CellQuest Pro Software and analyzed using FlowJo software choosing the Dean-Jet-Fox model analysis.
(In general: In flow cytometry, cells or beads pass a laser one at a time.)

Where [10] appears, read: GBM6 GFP sh0 (normal EB1 levels).
[11] abbreviates: GBM6 GFP shEB1 (EB1 downregulated).

These results are taken from US20180306790A1, “USE OF EB1 AS A BIOMARKER OF DRUG RESPONSE” (BASILEA PHARMACEUTICA INTERNATIONAL AG, priority 2015, published 2018).

Read-outs that look alike come from different tables or passages of the source.

`N#CCCNc1nonc1-c1nc2ccccc2n1CC(=O)c1ccc(N)cc1` [BAL27862, 3-(4-{1-[2-(4-amino-phenyl)-2-oxo-ethyl]-1H-benzoimidazol-2-yl}-furazan-3-ylamino)-propionitrile]: the “clonogenic capacity (colony formation)” value in series [1] (setting [10]) was “impaired the clonogenic capacity of GBM6 CSCs at the sub-toxic doses of 6 and 10 nM in a statistically significant manner”; in series [1] (GBM6 GFP shEB1 (EB1 levels downregulated)), “only in the EB1-expressing cells”. In addition, the “A2B5 positive cell number” value is given as “significant inhibition” in series [2] (GBM6 GFP sh0 (EB1 expressed)) and “less sensitive” in [2] (setting [11]). In addition, the EC50 in [3] (Homo sapiens, GBM6, 72 h) was approximately 20 nM; in series [3], 20.8 nM; in series [4] (Homo sapiens, 72 h), approximately 20 nM; in [4] it was 21.7 nM. The “inhibition of cell migration” value in series [5] (EB1 downregulated GBM6 cells (shEB1), 6 nM) was “inhibitory effect of BAL27862 treatment was drastically reduced”; in series [5] (GBM6, cytotoxic 20 nM, 5 hours transmigration), “drastically inhibited the migration”; in [5] (GBM6, non-cytotoxic 6 nM, 5 hours transmigration) it was “statistically significant inhibition of cell migration”; in [5] (control EB1-expressing GBM6 cells, 6 nM), “statistically significant inhibition of cell migration”; in series [6] (GBM9, cytotoxic 20 nM) it was “drastically inhibited the migration”; in [6] (GBM9, non-cytotoxic 6 nM), “did not respond”. Further, the sphere formation entry was “interferes statistically significantly with sphere formation” in series [7] (setting [10]), “suppresses the inhibitory activity of BAL27862” in [7] (setting [11]) and “interferes statistically significantly with sphere formation” in series [7] (GBM6 wild-type).

Consider `N#CCCNc1nonc1-c1nc2ccccc2n1CC(=O)c1ccc(NC(=O)[C@@H](N)CCCCN)cc1` [BAL101553], for which the “tumor mass (size) and tumor spreading versus vehicle” value in [8] (GBM6 GFP sh0 (EB1-expressing) tumors) was “clear reduction of the tumor mass (size) and in tumor spreading”; in series [8] (GBM6 GFP shEB1 (EB1 negative) tumors), “minimal”. The “proportion of A2B5 positive GBM6 cells” value in [9] (EB1 downregulated GBM6 tumors) is approximately 80%; in series [9] (EB1 expressing GBM6 tumors), 20%. Further, the “proportion of A2B5 negative GBM6 cells” value in series [9] (EB1 expressing GBM6 tumors) was 80%.
